The term MIC denotes the least concentration at which growth counts as inhibited. Low values mean a more susceptible organism, high ones a less susceptible organism.

Format in all cases: cell-based
For experiment [1], the system named is Klebsiella pneumonia. The experiment can be described thus: MIC against Gram-negative bacteria: Klebsiella pneumonia. The settings on record: 5×10^5 CFU/mL; for MIC against K. pneumonia: 96-well plate, 37° C., 10 h. The essentials: (§1)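 LB broth cultures at McFarland 0.5, spun down, resuspended, diluted to 5×10^5 CFU/mL final. Two-fold serial dilutions of purified human EGF domain proteins, triplicate. 37° C, 175 rpm shaking. Endpoint: no visible growth.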

In experiment [2] the test system is Serratia marcescens. The experiment can be described thus: MIC against Gram-negative bacteria: Serratia marcescens. The settings on record: 5×10^5 CFU/mL; for MIC against S. marcescens: 96-well plate, 37° C., 10 h. The essentials:
as §1

For experiment [3], the system named is Pseudomonas aeruginosa. Description: MIC against Gram-negative bacteria: Pseudomonas aeruginosa. The settings on record: 5×10^5 CFU/mL; for MIC against P. aeruginosa: 96-well plate, 37° C., 10 h. The essentials: as §1
The subject of experiment [4] is Aeromonas hydrophila. The experiment can be described thus: MIC against Gram-negative bacteria: Aeromonas hydrophila. The settings on record: 5×10^5 CFU/mL; for MIC against A. hydrophila: 96-well plate, 37° C., 10 h. Summed up: as §1
In experiment [5] the test system is Moraxella catarrhalis. The experiment can be described thus: MIC against Gram-negative bacteria: Moraxella catarrhalis. The settings on record: 5×10^5 CFU/mL; for MIC against M. catarrhalis: 96-well plate, 37° C., 10 h. The essentials:
as §1

In experiment [6] the test system is Proteus mirabilis. Description: MIC against Gram-negative bacteria: Proteus mirabilis. Particulars: 5×10^5 CFU/mL; for MIC against P. mirabilis: 96-well plate, 37° C., 10 h. Summed up:
as §1

Experiment [7] relates to Enterobacter cloacae. Description: MIC against Gram-negative bacteria: Enterobacter cloacae. The settings on record: 5×10^5 CFU/mL; for MIC against E. cloacae: 96-well plate, 37° C., 10 h. The essentials:
as §1

The subject of experiment [8] is Proteus vulgaris. The experiment can be described thus: MIC against Gram-negative bacteria: Proteus vulgaris. The settings on record: 5×10^5 CFU/mL; for MIC against P. vulgaris: 96-well plate, 37° C., 10 h. Summed up:
as §1

The subject of experiment [9] is E. coli DH5α. The experiment can be described thus: Antibacterial activity: MIC and growth curve against E. coli DH5α in 96-well plate. The settings on record: minimal inhibitory concentration against E. coli DH5α; 96-well plate, 5×10^5 CFU/mL, 37° C., judged after 8 h. Summed up: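 Log-phase DH5α (OD600 about 0.5, 37° C, 185 rpm in LB) was pelleted, resuspended in fresh LB and seeded at 5×10^5 CFU/mL with recombinant protein at 50, 25 and 12.5 μg/mL (two-fold series), in triplicate. Plates were shaken at 175 rpm, 37° C, and OD600 was read every 30 min. MIC was the lowest concentration with no growth.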

The test system of experiment [10] is E. coli BL21. The experiment can be described thus: MIC against Gram-negative bacteria: E. coli BL21. Particulars: 5×10^5 CFU/mL; for MIC against E. coli BL21: 96-well plate, 37° C., 10 h. The essentials: as §1
Experiment [11] has as its system Citrobacter diversus. Description: MIC against Gram-negative bacteria: Citrobacter diversus. Particulars: 5×10^5 CFU/mL; for MIC against C. diversus: 96-well plate, 37° C., 10 h. The essentials:
as §1

As to “PRT1321 (AIDECELDMRGGCHTDALCSYVGPGQSRCTCKLGFAGDGYQCS; listed as Homo sapiens)”, the “MIC against K. pneumonia” value in [1] (Klebsiella pneumonia) was found to be 25 µg/mL. Moreover, the “MIC against S. marcescens” value in experiment [2] (Serratia marcescens) was 12.5 µg/mL. Besides, the “MIC against P. aeruginosa” value in experiment [3] (Pseudomonas aeruginosa) turned out to be 50 µg/mL. In [4] (Aeromonas hydrophila), the “MIC against A. hydrophila” value is 50 µg/mL. Also, in experiment [5] (Moraxella catarrhalis), the “MIC against M. catarrhalis” value was 50 µg/mL. For the same substance, the “MIC against P. mirabilis” value in [6] (Proteus mirabilis) amounted to 12.5 µg/mL. In addition, in experiment [7] (Enterobacter cloacae), the “MIC against E. cloacae” value is 12.5 µg/mL. In addition, in experiment [8] (Proteus vulgaris), the “MIC against P. vulgaris” value is 100 µg/mL. The substance further yielded an MIC in experiment [9] of 50 µg/mL. Besides, the “MIC against E. coli BL21” value in [10] (E. coli BL21) stood at 12.5 µg/mL. The “MIC against C. diversus” value in [11] (Citrobacter diversus) was 12.5 µg/mL.

Regarding “PRT504 (CDCSGNVDPSEAGHCDSVTGECLKCLGNTDGAHCERCADGFYGDAVTAKNCRA; listed as Homo sapiens)”, in experiment [1], the “MIC against K. pneumonia” value was 50 µg/mL. For the same substance, the “MIC against S. marcescens” value in [2] was 12.5 µg/mL. The “MIC against P. aeruginosa” value in experiment [3] came to 12.5 µg/mL. Moreover, the “MIC against A. hydrophila” value in [4] turned out to be 25 µg/mL. The “MIC against M. catarrhalis” value in experiment [5] came out at 25 µg/mL. Also, the “MIC against P. mirabilis” value in experiment [6] is 12.5 µg/mL. Also, the “MIC against E. cloacae” value in experiment [7] was found to be 12.5 µg/mL. In experiment [8], the “MIC against P. vulgaris” value came to 50 µg/mL. Also, in experiment [9], the MIC was determined as 12.5 µg/mL. Also, the “MIC against E. coli BL21” value in experiment [10] was determined as 50 µg/mL. Further, in experiment [11], the “MIC against C. diversus” value turned out to be 50 µg/mL.

As for “PRT839 (DVDECRLGLARCHPRATCLNTPLSYECHCQRGYQGDGISHCN; listed as Homo sapiens)”, the “MIC (μg/mL) K. pneumonia” value in experiment [1] (K. pneumonia, 10 h cultivation at 37° C.) came to 12.5 µg/mL. For the same substance, in experiment [2] (S. marcescens, 10 h cultivation at 37° C.), the “MIC (μg/mL) S. marcescens” value is 50 µg/mL. Besides, the “MIC (μg/mL) P. aeruginosa” value in experiment [3] (P. aeruginosa, 10 h cultivation at 37° C.) is 12.5 µg/mL. In addition, in [4] (A. hydrophila, 10 h cultivation at 37° C.), the “MIC (μg/mL) A. hydrophila” value was 12.5 µg/mL. Further, the “MIC (μg/mL) M. catarrhalis” value in experiment [5] (M. catarrhalis, 10 h cultivation at 37° C.) was determined as 50 µg/mL. In addition, in [6] (P. mirabilis, 10 h cultivation at 37° C.), the “MIC (μg/mL) P. mirabilis” value amounted to 25 µg/mL. In addition, the “MIC (μg/mL) E. cloacae” value in experiment [7] (E. cloacae, 10 h cultivation at 37° C.) amounted to 12.5 µg/mL. Besides, in experiment [8] (P. vulgaris, 10 h cultivation at 37° C.), the “MIC (μg/mL) P. vulgaris” value is 12.5 µg/mL. The MIC in experiment [9] was determined as 12.5 µg/mL. The “MIC (μg/mL) E. coli BL21” value in experiment [10] (E. coli BL21, 10 h cultivation at 37° C.) amounted to 25 µg/mL. The “MIC (μg/mL) C. diversus” value in experiment [11] (C. diversus, 10 h cultivation at 37° C.) is 25 µg/mL.

Take “PRT492 (CICYGHASSCPWDETTKKLQCQCEHNTCGESCNRCCPGYHQQPWRPGTVSSGNTCEA; listed as Homo sapiens)”: the “MIC against K. pneumonia” value in [1] stood at 12.5 µg/mL. For the same substance, the “MIC against S. marcescens” value in experiment [2] stood at 50 µg/mL. For the same substance, the “MIC against P. aeruginosa” value in [3] was 25 µg/mL. Besides, the “MIC against A. hydrophila” value in experiment [4] was 50 µg/mL. Besides, in [5], the “MIC against M. catarrhalis” value was found to be 12.5 µg/mL. Also, the “MIC against P. mirabilis” value in experiment [6] came to 50 µg/mL. The “MIC against E. cloacae” value in experiment [7] is 25 µg/mL. Moreover, the “MIC against P. vulgaris” value in experiment [8] amounted to 12.5 µg/mL. In experiment [9], this substance showed an MIC of 25 µg/mL. For the same substance, in experiment [10], the “MIC against E. coli BL21” value is 50 µg/mL. In experiment [11], the “MIC against C. diversus” value was found to be 25 µg/mL.

Regarding “PRT1300 (VIDHCVPELNLCQHEAKCIPLDKGFSCECVPGYSGKLCE; listed as Homo sapiens)”, the “MIC against K. pneumonia” value in [1] (Klebsiella pneumonia) turned out to be 12.5 µg/mL. Moreover, the “MIC against S. marcescens” value in experiment [2] (Serratia marcescens) amounted to 12.5 µg/mL. Further, the “MIC against P. aeruginosa” value in experiment [3] (Pseudomonas aeruginosa) is 25 µg/mL. The “MIC against A. hydrophila” value in [4] (Aeromonas hydrophila) was 50 µg/mL. Further, the “MIC against M. catarrhalis” value in experiment [5] (Moraxella catarrhalis) was found to be 12.5 µg/mL. In addition, in [6] (Proteus mirabilis), the “MIC against P. mirabilis” value was found to be 12.5 µg/mL. For the same substance, the “MIC against E. cloacae” value in experiment [7] (Enterobacter cloacae) came to 25 µg/mL. For the same substance, the “MIC against P. vulgaris” value in [8] (Proteus vulgaris) was determined as 12.5 µg/mL. The substance further gave an MIC in [9] of 12.5 µg/mL. Moreover, in [10] (E. coli BL21), the “MIC against E. coli BL21” value amounted to 50 µg/mL. For the same substance, the “MIC against C. diversus” value in [11] (Citrobacter diversus) was 12.5 µg/mL.

For the origin of these results see patent publication US9833497B2, “Human originated EGF domain proteins and use of the same” (CHENGDU SOURCEBIO LIMITED-LIABILITY COMPANY, priority 2013, dated 2017).
